Results from patent US20080280879A1, “SUBSTITUTED HETEROCYCLIC DERIVATIVES AND THEIR PHARMACEUTICAL USE AND COMPOSITIONS” (priority 2007, published 2008).
≈ marks a conversion by molar mass, not a printed value.

Assays:
Type in all cases: cell-based, Staphylococcus aureus
[1] = system: Staph aureus 1146; assay: MIC in Mueller-Hinton Broth with 50% pooled inactivated human serum, Assay 1, Table 12; settings: for MIC, column C: Staph aureus 1146, Assay 1, 50% human serum; for MIC: Staphylococcus aureus, 1146, Staph aureus 1146, Assay 1, 50% human serum, read-out: MIC, column C
In short: (§1)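 Testing followed the CLSI M7-A7 dilution standard in microtiter trays, with serum conditions using Mueller-Hinton Broth plus 50% pooled inactivated human serum. Values are the lowest concentrations with no macroscopically visible growth.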

[2] = system: Staph aureus 1146; assay: MIC, microtiter broth dilution (CLSI M7-A7), Assay 1, Table 12 column B, no serum; settings: for MIC, column B: Staph aureus 1146, Assay 1, no serum; for MIC: Staphylococcus aureus, 1146, Staph aureus 1146, Assay 1, no serum
In short: as §1

[3] = system: Staph aureus 1095 MRSA; assay: MIC, microtiter broth dilution (CLSI M7-A7), Assay 1, Table 12 column A, no serum; settings: Assay 1, no serum; for MIC: Staphylococcus aureus, MRSA
In short: as §1

[4] = system: Staph aureus 1031; assay: MIC, microtiter broth dilution (CLSI M7-A7), Assay 2, Table 12 column F, no serum; settings: for MIC, column F: Staph aureus 1031, Assay 2, no serum; for MIC: Staphylococcus aureus, 1031, Staph aureus 1031, Assay 2, no serum
Experimental: (§2) The assays described herein include a panel of bacterial isolates of Staphylococcus aureus. Assay 1 comprises the strains noted in Columns A through E, and Assay 2 comprises the strains noted in Columns F through H. The assays are performed in microtiter trays according to Methods for Dilution Antimicrobial Susceptibility Tests for Bacteria that Grow Aerobically; Approved Standard-7th edition (M7-A7) and interpreted according to the Performance Standards for Antimicrobial Susceptibility Testing; 16th Informational Supplement (M100-S16) published by Clinical Laboratory Standards Institute (CLSI). The antibacterial activity is presented in the form of a minimum inhibitory concentration (MIC) value in μg/ml format. The MIC value represents the lowest concentration of drug measured which prevented macroscopically visible growth under the conditions and specific doses tested. The compounds were initially dissolved in DMSO as 30 mM stocks and diluted accordingly to adjust to a concentration of 10 mg/ml or the compounds were dissolved in DMSO at a concentration of 10 mg/ml. For assessment of activity in the presence of human serum, S. aureus 1146 and S. aureus 1031 were inoculated into Mueller-Hinton Broth with 50% pooled inactivated human serum. In some cases, compounds were tested more than once in a particular assay. Where noted, the MIC value shown in Table 12 represents the geometric mean of the data from multiple runs.
(§3) It should be understood that the data in columns A-H represents MIC data in μg/ml and the notation “<=” means ‘less than or equal to’.

[5] = system: Staph aureus 2810; assay: MIC, microtiter broth dilution (CLSI M7-A7), Assay 2, Table 12 column H, no serum; settings: for MIC, column H: Staph aureus 2810, Assay 2, no serum; for MIC: Staphylococcus aureus, 2810, Staph aureus 2810, Assay 2, no serum
Experimental: as §2, §3

[6] = system: Staph aureus 2812; assay: MIC, microtiter broth dilution (CLSI M7-A7), Assay 1, Table 12 column E, no serum; settings: for MIC, column E: Staph aureus 2812, Assay 1, no serum; for MIC: Staphylococcus aureus, 2812, Staph aureus 2812, Assay 1, no serum
In short: as §1

[7] = system: Staph aureus 2811; assay: MIC, microtiter broth dilution (CLSI M7-A7), Assay 1, Table 12 column D, no serum; settings: for MIC, column D: Staph aureus 2811, Assay 1, no serum; for MIC: Staphylococcus aureus, 2811, Staph aureus 2811, Assay 1, no serum
In short: as §1

[8] = system: Staph aureus 1031; assay: MIC in Mueller-Hinton Broth with 50% pooled inactivated human serum, Assay 2, Table 12 column G; settings: for MIC: Staphylococcus aureus, 1031, Staph aureus 1031, Assay 2, 50% human serum
Experimental: as §2, §3

COc1ccc2nccc(C(O)CC[C@@H]3CCN(C4CC(c5ccccc5)C4)C[C@@H]3C(=O)O)c2c1 (single isomer, unassigned) [Example 1]
MIC, column C [1]: 0.3969 µg/mL (≈ 0.836 µM)
MIC, column B [2]: <=.0787 μg/ml
MIC, column A [3]: <=.0992 μg/ml
MIC, column F [4]: <=.0884 μg/ml
MIC, column H [5]: 0.125 µg/mL (≈ 0.263 µM)
MIC, column E [6]: <=.0992 μg/ml
MIC, column D [7]: <=.0787 μg/ml

COc1ccc2nccc([C@@H](O)CC[C@@H]3CCN(C4CCc5cc(F)ccc54)C[C@@H]3C(=O)O)c2c1 (single isomer, unassigned) [Example 75]
MIC [8]: > 64 µg/mL
MIC [4]: > 64 µg/mL
MIC [5]: > 64 µg/mL

COc1ccc2nccc(C(O)CC[C@@H]3CCN(C4CC(OCc5ccccc5)C4)C[C@@H]3C(=O)O)c2c1 (stereo partly drawn) [Example 20, (3R,4R)-1-[3-(benzyloxy)cyclobutyl]-4-[3-hydroxy-3-(6-methoxyquinolin-4-yl)propyl]piperidine-3-carboxylic acid]
MIC [8]: 64 µg/mL (≈ 127 µM)
MIC [4]: 16 µg/mL (≈ 31.7 µM)
MIC [5]: 16 µg/mL (≈ 31.7 µM)

COC(=O)[C@H]1CN(C2CCc3cc(F)ccc32)CC[C@H]1CCC(O)c1ccnc2ccc(OC)cc12 (stereo partly drawn) [Example 73, methyl (3R,4R)-1-(5-fluoro-2,3-dihydro-1H-inden-1-yl)-4-[3-hydroxy-3-(6-methoxyquinolin-yl)propyl]piperidine-3-carboxylate]
MIC, column G ([8]; Staph aureus 1031, Assay 2, 50% human serum): >64 µg/mL
MIC, column F [4]: >64 µg/mL
MIC, column H [5]: >64 µg/mL

COc1ccc2nccc(C(O)CC[C@@H]3CCN(C4CCc5cc(F)ccc54)C[C@@H]3C(=O)O)c2c1 (stereo partly drawn) [Example 74, (3R,4R)-1-(5-fluoro-2,3-dihydro-1H-inden-1-yl)-4-(3-hydroxy-3-(6-methoxyquinolin-4-yl)propyl)piperidine-3-carboxylic acid]
MIC [8]: > 64 µg/mL
MIC [4]: > 64 µg/mL
MIC [5]: > 64 µg/mL

COC(=O)[C@H]1CN(C2CCCc3ccccc32)CC[C@H]1CCC(O)c1ccnc2ccc(OC)cc12 (stereo partly drawn) [Example 76, (3R,4R)-methyl 4-(3-hydroxy-3-(6-methoxyquinolin-4-yl)propyl)-1-(1,2,3,4-tetrahydronaphthalen-1-yl)piperidine-3-carboxylate]
MIC [8]: > 64 µg/mL
MIC [4]: > 64 µg/mL
MIC [5]: > 64 µg/mL

COc1ccc2nccc(C(O)CC[C@@H]3CCN(C4CCCc5ccccc54)C[C@@H]3C(=O)O)c2c1 (stereo partly drawn) [Example 77, (3R,4R)-4-(3-hydroxy-3-(6-methoxyquinolin-4-yl)propyl)-1-(1,2,3,4-tetrahydronaphthalen-1-yl)piperidine-3-carboxylic acid]
MIC [8]: > 64 µg/mL
MIC [4]: > 64 µg/mL
MIC [5]: > 64 µg/mL

COC(=O)[C@H]1CN(C2Cc3ccccc3C2)CC[C@H]1CCC(O)c1ccnc2ccc(OC)cc12 (stereo partly drawn) [Example 78, (3R,4R)-methyl 1-(2,3-dihydro-1H-inden-2-yl)-4-(3-hydroxy-3-(6-methoxyquinolin-4-yl)propyl)piperidine-3-carboxylate]
MIC [8]: > 64 µg/mL
MIC [4]: > 64 µg/mL
MIC [5]: > 64 µg/mL

COc1ccc2nccc(C(O)CC[C@@H]3CCN(C4Cc5ccccc5C4)C[C@@H]3C(=O)O)c2c1 (stereo partly drawn) [Example 79, (3R,4R)-1-(2,3-dihydro-1H-inden-2-yl)-4-(3-hydroxy-3-(6-methoxyquinolin-4-yl)propyl)piperidine-3-carboxylic acid]
MIC [8]: 64 µg/mL (≈ 139 µM)
MIC [4]: 8 µg/mL (≈ 17.4 µM)
MIC [5]: 8 µg/mL (≈ 17.4 µM)

COc1ccc2nccc(C(O)CC[C@@H]3CCN(C4Cc5ccc(Cl)cc5C4)C[C@@H]3C(=O)O)c2c1 (stereo partly drawn) [Example 80, (3R,4R)-1-(5-chloro-2,3-dihydro-1H-inden-2-yl)-4-(3-hydroxy-3-(6-methoxyquinolin-4-yl)propyl)piperidine-3-carboxylic acid]
MIC [8]: > 64 µg/mL
MIC [4]: 1 µg/mL (≈ 2.02 µM)
MIC [5]: 1 µg/mL (≈ 2.02 µM)

COc1ccc2nccc(C(O)CC[C@@H]3CCN(C4Cc5cccc(Br)c5C4)C[C@@H]3C(=O)O)c2c1 (stereo partly drawn) [Example 81, (3R,4R)-1-(4-bromo-2,3-dihydro-1H-inden-2-yl)-4-(3-hydroxy-3-(6-methoxyquinolin-4-yl)propyl)piperidine-3-carboxylic acid]
MIC [8]: > 64 µg/mL
MIC [4]: 4 µg/mL (≈ 7.41 µM)
MIC [5]: 4 µg/mL (≈ 7.41 µM)

COC(=O)[C@H]1CN(CC2Cc3ccccc3C2)CC[C@H]1CCC(O)c1ccnc2ccc(OC)cc12 (stereo partly drawn) [Example 82, (3R,4R)-methyl 1-((2,3-dihydro-1H-inden-2-yl)methyl)-4-(3-hydroxy-3-(6-methoxyquinolin-4-yl)propyl)piperidine-3-carboxylate]
MIC [8]: 32 µg/mL (≈ 65.5 µM)
MIC [4]: 8 µg/mL (≈ 16.4 µM)
MIC [5]: 16 µg/mL (≈ 32.7 µM)

COc1ccc2nccc([C@@H](O)CC[C@@H]3CCN(C4CC(c5cccc(C#N)c5)C4)C[C@@H]3C(=O)O)c2c1 (stereo partly drawn) [Example 223, (3R,4R)-1-[3-(3-cyanophenyl)cyclobutyl]-4-[(3S)-3-hydroxy-3-(6-methoxyquinolin-4-yl)propyl]piperidine-3-carboxylic acid]
MIC [1]: 32 µg/mL (≈ 64 µM)
MIC [2]: 4 µg/mL (≈ 8.01 µM)
MIC [3]: 16 µg/mL (≈ 32 µM)
MIC [6]: 8 µg/mL (≈ 16 µM)
MIC [7]: 4 µg/mL (≈ 8.01 µM)

COc1ccc2nccc([C@@H](O)CC[C@@H]3CCN(C4CC(c5ccccc5)C4)C[C@@H]3c3nn[nH]n3)c2c1 (stereo partly drawn) [Example 224, (S)-1-(6-methoxyquinolin-4-yl)-3-((3R,4R)-1-(3-phenylcyclobutyl)-3-(2H-tetrazol-5-yl)piperidin-4-yl)propan-1-ol]
MIC [1]: 8 µg/mL (≈ 16 µM)
MIC [2]: 0.25 µg/mL (≈ 0.501 µM)
MIC [3]: 2 µg/mL (≈ 4.01 µM)
MIC [6]: 0.5 µg/mL (≈ 1 µM)
MIC [7]: 0.25 µg/mL (≈ 0.501 µM)

COc1ccc2nccc([C@@H](O)CC[C@@H]3CCN(C4CC5c6ccccc6SC54)C[C@@H]3C(=O)O)c2c1 (stereo partly drawn) [Example 225]
MIC [1]: 2 µg/mL (≈ 3.96 µM)
MIC [2]: 0.25 µg/mL (≈ 0.495 µM)
MIC [3]: 1 µg/mL (≈ 1.98 µM)
MIC [6]: 0.5 µg/mL (≈ 0.991 µM)
MIC [7]: 0.25 µg/mL (≈ 0.495 µM)

COc1ccc2nccc([C@@H](O)CC[C@@H]3CCN(C4CC(c5cccc(C#N)c5)C4)C[C@@H]3C(=O)O)c2c1 (stereo partly drawn) [Example 226, (3R,4R)-1-(3-(3-cyanophenyl)cyclobutyl)-4-((S)-3-hydroxy-3-(6-methoxyquinolin-4-yl)propyl)piperidine-3-carboxylic acid]
MIC, column C [1]: 32 µg/mL (≈ 64 µM)
MIC, column B [2]: 4 µg/mL (≈ 8.01 µM)
MIC, column A [3]: 16 µg/mL (≈ 32 µM)
MIC, column E [6]: 8 µg/mL (≈ 16 µM)
MIC, column D [7]: 4 µg/mL (≈ 8.01 µM)

COc1ccc2ncc(F)c([C@@H](O)CC[C@@H]3CCN(C4CC(=O)N(c5ccccc5)C4)C[C@@H]3C(=O)O)c2c1 (stereo partly drawn) [Example 227]
MIC [1]: 64 µg/mL (≈ 123 µM)
MIC [2]: 2 µg/mL (≈ 3.83 µM)
MIC [3]: 8 µg/mL (≈ 15.3 µM)
MIC [6]: 8 µg/mL (≈ 15.3 µM)
MIC [7]: 2 µg/mL (≈ 3.83 µM)

(3R,4R)-1-(1-cyclobutylazetidin-3-yl)-4-[3-hydroxy-3-(6-methoxyquinolin-4-yl)propyl]piperidine-3-carboxylic acid [Example 130]
MIC, column C [1]: >64 µg/mL
MIC, column B [2]: >64 µg/mL
MIC, column A [3]: >64 µg/mL
MIC, column E [6]: >64 µg/mL
MIC, column D [7]: >64 µg/mL

(3R,4R)-1-[3-(2,5-difluorophenyl)cyclobutyl]-4-[3-(3-fluoro-6-methoxy-1,5-naphthyridin-4-yl)-3-hydroxypropyl]piperidine-3-carboxylic acid [Example 219]
MIC, column C [1]: 2.00 µg/mL
MIC, column B [2]: <0.0625 µg/mL
MIC, column A [3]: 0.250 µg/mL
MIC, column E [6]: 0.125 µg/mL
MIC, column D [7]: <0.0625 µg/mL
